# Test: recombinant barcode read abundance after kanamycin selection (control-corrected) (log10(CPM+1)); higher = more efficient recombination; sequences stand for … in AGTGCAGAGAAAATCGGCCAGTTTTCTCTGCCTGCAGTCCGCATGCCGT…AGATTTATGCAGCGGACTGCCTTTCTCCCAAAGTGATAAACCGGACAGTATCATGGACCGGTTTTCCCGGTAATCCGTATTTGCAAGGTTGGTTTCACT; site = the 11-nt target
# Method in brief: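 A vector carrying a T7-inducible recombinase and the last 73 bp of the bridge RNA received, by Gibson cloning, oligos encoding a promoter, target, barcode and the first 104 bridge RNA bases under J23119. The pooled constructs entered E. coli together with a donor plasmid by electroporation. Selection used chloramphenicol/ampicillin/kanamycin with 0.1 mM IPTG, with chloramphenicol/ampicillin LB agar as the control, each in two replicates. Recombination efficiency is the averaged, control-corrected counts-per-million of barcodes at recombinant junctions, reported as log10(CPM+1).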
# 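Further: IS621 recombinase and bridge RNA in Escherichia coli cells.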
row,Sequence,recombinant barcode read abundance (log10)
1,CTATGTGCTTGGGTTCTAACCTGTTGCTT (site CTATGTGCTAT),0.746
2,CTATTAACTTGGGTTCTAACCTGTTGCTA (site ACTCACCCTCC),0.00656
3,CTATTAACTTGGGTTCTAACCTGTTGCTA (site CTATTAACTTA),0.328
4,CTATTCCCTTGGGTTCTAACCTGTTGCTG (site CTATTCCCTCA),1.99
5,CTATTCCCTTGGGTTCTAACCTGTTGCTG (site CTCTTCCCTAA),0.185
6,CTATTCGCTTGGGTTCTAACCTGTTGCCT (site CTATTCACTAG),0.295
7,CTATTCGCTTGGGTTCTAACCTGTTGCCT (site CTATTCCCTAG),0.0147
8,CTATTCGCTTGGGTTCTAACCTGTTGCCT (site CTATTCGCTAG),1.49
9,CTATTCGCTTGGGTTCTAACCTGTTGCCT (site CTATTCTCTAG),0.218
10,CTATTGACTTGGGTTCTAACCTGTTGCCT (site CTATAGACTAG),0.0514
11,CTATTGACTTGGGTTCTAACCTGTTGCCT (site CTATCGACTAG),0.246
12,CTATTGACTTGGGTTCTAACCTGTTGCCT (site CTATGGACTAG),0.11
13,CTATTGACTTGGGTTCTAACCTGTTGCCT (site CTATTGACTAG),1.42
14,CTATTGTCTTGGGTTCTAACCTGTTGCGC (site CTATTGTCTAC),0.06
15,CTATTGTCTTGGGTTCTAACCTGTTGCGC (site CTATTGTCTCC),0.0404
16,CTATTGTCTTGGGTTCTAACCTGTTGCGC (site CTATTGTCTGC),2.77
17,CTATTGTCTTGGGTTCTAACCTGTTGCGC (site CTATTGTCTTC),0.909
18,CTATTTACTTGGGTTCTAACCTGTTGCCT (site CTAATTACTAG),0.0674
19,CTATTTACTTGGGTTCTAACCTGTTGCCT (site CTACTTACTAG),0.302
20,CTATTTACTTGGGTTCTAACCTGTTGCCT (site CTAGTTACTAG),0.19
21,CTATTTACTTGGGTTCTAACCTGTTGCCT (site CTATTTACTAG),0.411
22,CTCAATTCTTGGGTTCTAACCTGTTGCAA (site CTCAATACTTC),0.0332

row,Sequence,recombinant barcode read abundance (log10)
1,CTCAATTCTTGGGTTCTAACCTGTTGCAA (site CTCAATTCTTT),0.0558
2,CTCAATTCTTGGGTTCTAACCTGTTGCAT (site CTCAATTCTAT),0.812
3,CTCAATTCTTGGGTTCTAACCTGTTGCAT (site CTCCATTCTAT),0.0304
4,CTCAATTCTTGGGTTCTAACCTGTTGCAT (site CTCGATTCTAT),0.27
5,CTCAATTCTTGGGTTCTAACCTGTTGCAT (site CTCTATTCTAT),0.148
6,CTCATAACTTGGGTTCTAACCTGTTGCCG (site CTCATAACTCG),0.328
7,CTCATAACTTGGGTTCTAACCTGTTGCCG (site CTCTAAACTCG),0.2
8,CTCATATCTTGGGTTCTAACCTGTTGCTT (site CTCATATCTAA),1.18
9,CTCATATCTTGGGTTCTAACCTGTTGCTT (site GAATGGACTTC),0.0724
10,CTCCAACCTTGGGTTCTAACCTGTTGCCT (site CGCCCACCTAG),0.144
11,CTCCAACCTTGGGTTCTAACCTGTTGCCT (site CTCCAACCTAG),1.54
12,CTCCAACCTTGGGTTCTAACCTGTTGCGG (site CTCCAACCTCC),2.14
13,CTCCAACCTTGGGTTCTAACCTGTTGCGG (site CTCCAGCCTCC),0.461
14,CTCCATACTTGGGTTCTAACCTGTTGCCT (site CTCCATACTAG),0.814
15,CTCCATACTTGGGTTCTAACCTGTTGCCT (site CTCCATCCTAG),0.0983
16,CTCCATACTTGGGTTCTAACCTGTTGCCT (site CTCCATGCTAG),0.23
17,CTCCATACTTGGGTTCTAACCTGTTGCCT (site CTCCATTCTAG),0.0874
18,CTCCGAACTTGGGTTCTAACCTGTTGCAG (site CTCCGAACTCT),1.12
19,CTCCGAACTTGGGTTCTAACCTGTTGCAG (site TCATATCCTAG),0.174
20,CTCCGGACTTGGGTTCTAACCTGTTGCCT (site CTCCGGACTAG),2.02
21,CTCCGGACTTGGGTTCTAACCTGTTGCCT (site CTCCGTACTAG),0.276

# — the supplement of paper PMC11208160
